Laboratory results as given in patent US9096643B2, “Cell-protective peptides and uses thereof” (priority 2010, dated 2015).
No end group written: not given here.

Key:
[1] = tested on: Rat neonatal cardiomyocytes; assay: ATP assay (CellTiter-Glo) in serum-starved cardiomyocytes; type: cell-based; details: 1 d
Experimental: Rat neonatal cardiomyocytes were incubated with PBS (control), 500 μM QHREDGS, scrambled QHREDGS peptide, GRGDSP peptide or 400 nM ang 1 or ang2 in DMEM/0.5% BSA/cytosine-β-D-arabinofuranoside (37° C., 5% CO2, 1 d). ATP levels were quantified using the CellTiter-Glo Luminescent Assay (Promega) as per manufacturer's instructions (N=6/group). Luminescence was measured using a Wallac 1420 microplate reader.

[2] = tested on: neonatal rat cardiomyocytes; assay: Cardiomyocyte encapsulation in chitosan hydrogels, live/dead staining after 6 days; type: cell-based; details: peptide conjugated to Az-chitosan hydrogel, in vitro cultivation
Experimental: The lyophilized form of the peptide-modified Az-chitosan (Az-chitosan-QHREDGS or Az-chitosan-RGDS) was dissolved in sterile 0.9% PBS at 12 mg/mL. Cardiomyocytes (2.5×10^6) were suspended in 15 μL 30% FBS-containing culture medium for 15 min. on ice. These cells were further suspended in 35 μL of the hydrogel. This mixture was placed on a 12 mm diameter glass coverslip, which was placed on a UV lamp (UVP, 365 nm, 1 mW/cm^2 at 3″ distance, 115 V, 60 Hz, 0.16 Amp) and exposed to UV light for 5 min. The samples were then transferred to a 12 well plate and supplemented with 2 mL of warm cardiomyocyte culture media.
Live/dead staining was performed using 5-carboxyfluorescein diacetate acetoxymethly ester, which stains live cells green, and propidium iodide, which stains dead cells red according to the manufacturer's instruction (Invitrogen). Three sets of surfaces were analyzed for each sample type.

[3] = tested on: human iPS cells BJ1D; assay: iPS colony formation / cloning efficiency after complete dissociation at clonal density; type: cell-based; details: 50 μM, trypsinized, clonal density, one week, FIG. 13A
Experimental: (§1) The human iPS cells (BJ1D and 0901B) were obtained from the Ontario iPSC Facility and used following the hiPS cell research guidelines of the University of Toronto as described by Hotta et al. Nat. Protoc. 4, 1828-1844 (2009)), unless specified otherwise. Cells were cultured on a feeder layer of MEF cells (Mount Sinai Hospital Toronto, inactivated with 10 μg/ml mitomycin C and seeded at 1.8×10^5 per 3.5 cm dish). For single cell cultures, hiPS cell colonies were dissociated in 0.25% Trypsin-EDTA (Invitrogen) for 5 min, followed by trituration with a pipette. To ensure a single-cell suspension, the dissociated cells were passed through a 40 μm cell strainer (BD Falcon) and seeded onto MEF plates at 10 cells/ml, 10 cm plates. Cells were allowed to grow for 7 days and the total number of colonies was counted. In the treated groups, QHREDGS (Biomatik) or DGQESHR (Biomatik) dissolved in PBS (Lonza), were added at the reported concentrations to culture media at the onset of the first treatment passage and replenished with each media change. Media was changed by 100% every day. Peptides and controls were included during dissociation and passaging. Cells were analyzed after 5 passages in continuous treatment with 50 μM QHREDGS, 50 μM DGQESHR, or PBS, unless specified otherwise.
(§2) iPS cells, BJ1D or 0901B were treated with 50 μM of QHREDGS peptide, or 50 μM DGQESHR scrambled peptide in PBS with a PBS treated control for five passages as a preparation for passage by trypsin. Cells were trypsinized and plated at a clonal density of 10 cells/ml for one week and the number of colonies were counted.
(§3) After 5 passages in pre-treatment with 50 μM QHREDGS, or controls and complete dissociation (trypsinized), human iPS cells, BJ1D or 0901B cells, were plated on a mouse embryonic fibroblast (MEF) feeder layer at low density (100 cells/plate, 10 cm plate) in maintenance medium containing 50 μM QHREDGS, PBS, or 50 μM DGQESHR scrambled peptide. After one-week in culture, untreated or DGQESHR (scrambled peptide) treated groups generated few colonies, whereas QHREDGS treated groups for both BJ1D or 0901B cells produced many large colonies (˜15 times more than the controls) (see FIG. 13A/B, respectively). The colonies were positive for Oct4, a marker for the undifferentiated state. The cloning efficiency, based on ratio of Oct4+ colonies formed per initially seeded human iPS cells, was 27+/−7.1% and 2.5+/−0.6% for BJ1D and 48+/−9.4% and 22.3+/−1.9 for 0901B in the presence and absence of QHREDGS, respectively. […] Thus, treatment with QHREDGS supports single-cell culture of human iPS cells through the promotion of colony formation.

[4] = tested on: human iPS cells 0901B; assay: as above; type: cell-based; details: 50 μM, trypsinized, clonal density, one week, FIG. 13B
Experimental: as §1, §2, §3

[5] = tested on: neonatal rat CMs (heart cells); assay: Preliminary 3D cell encapsulation studies in hydrogels; type: cell-based, rat (Sprague-Dawley); details: encapsulated, 1 to 4 days of 3D culture
Experimental: The lyophilized form of the peptide-modified Az-chitosan was dissolved in sterile 0.9% saline at 12 mg/mL. CMs (2.5×10^6) were suspended in 15 μL of CM culture media with 30% serum for 15 minutes on ice. These cells were then suspended in 35 μL of the hydrogel and crosslinked in the transwell inserts of the 96 well plates. The cells were cultivated in the CM culture medium with 10% FBS for up to 4 days.

[6] = tested on: neonatal rat CMs (heart cells); assay: Heart cell attachment on peptide-modified Az-chitosan coated coverslips (brightfield cell counts); type: cell-based, rat (Sprague-Dawley); details: coated glass coverslips, 1, 3 and 5 days of incubation, FIG. 1
Experimental: Neonatal (1 to 2 day-old) Sprague-Dawley rats were euthanized according to the procedure approved by the University of Toronto Committee on Animal Care. […] The supernatant from 5 collagenase digests of the tissues was collected and centrifuged at 750 rpm (94 g) for 4 min, resuspended in culture medium and pre-plated into T75 flasks (Falcon) for 1 hour to separate the non-adherent cells (enriched CMs) from the adherent cells (non-myocytes). The enriched CMs were used in the studies. The CM culture medium consisted of Dulbecco's Modified Eagle Medium (DMEM) with 4.5 g/L glucose, 4 mM L-glutamine, 10% certified fetal bovine serum (FBS), 100 U/mL penicillin, 100 μg/mL streptomycin, and 10 mM 4-2-hydroxyethyl-1-piperazineethanesulfonic acid buffer (HEPES, Gibco/Invitrogen).
The surfaces used for microscopy analysis were created on circular 12 mm diameter glass coverslips (VWR). These were plasma treated (WS-400BZ-6NPP/Lite, Laurell Technologies) for 30 s. […]
The day before cells were ready to be seeded, the surfaces in the 12-well plates were sterilized by germicidal UV illumination overnight. […]
Brightfield images were taken with 10× magnification of surfaces with cells (N=3) to visualize the morphology and cell attachment (IX81, Olympus). […] The number of cells was then counted using the cell counting plug-in on ImageJ (NIH version 1.36b).

[7] = tested on: Rat neonatal cardiomyocytes; assay: Hydrogen peroxide treatment, Trypan blue viability (monolayer); type: cell-based; details: 200 nM ang 1 1.5 hr, 100 μM H2O2 10 min, FIG. 5A
Experimental: Rat neonatal cardiomyocytes were incubated for 1.5 hr with 500 μM QHREDGS, scrambled (scram) QHREDGS peptide (DGQESHR), or PBS control (PBS); 200 nM ang 1 or its matched buffer control [0.1% bovine serum albumin (BSA) in PBS] in the culture medium. The culture medium consisted of Dulbecco's Modified Eagle's Medium (DMEM) with 0.5% BSA and cytosine-β-D-arabinofuranoside (anti-proliferative). Reactive oxygen species were increased by addition of 100 μM H2O2 for 10 min (37° C., 5% CO2) (N=6/group). Cell viability was measured using a Trypan blue stain. Trypan blue dye is impermeable to viable cells, but enters dead/damaged cells with impaired membrane integrity, staining cells blue.

Molecule: GRGDSP [RGD-based peptides, reference compound]
- cardiac myocyte ATP levels ([1]; 500 μM peptide): no such effect

Molecule: QHREDGS (angiopoietin 1 peptide)
- syncytium formation of encapsulated cardiomyocytes [2]: formation of a dense syncytium

Molecule: DGQESHR [scrambled QHREDGS peptide control, reference compound]
- number of colonies [3]: few colonies
- number of colonies [4]: few colonies
- cardiac myocyte ATP levels ([1]; 500 μM peptide): no such effect

Molecule: Az-chitosan-DGQESHR: scrambled QHREDGS peptide conjugated to Az-chitosan (also: conjugated to Az-chitosan, site not given here) [reference compound]
- heart cell survival and elongation in 3D hydrogel [5]: a large number of dead round cells
- cell adhesion / cell attachment to coated surface [6]: did not have the same attachment results

B1: Angiopoietin 1 (protein, UniProt Q15389 1-498, looked up)
chain: MTVFLSFAFLAAILTHIGCSNQRRSPENSGRRYNRIQHGQCAYTFILPEHDGNCRESTTDQYNTNALQRDAPHVEPDFSSQKLQHLEHVMENYTQWLQKLENYIVENMKSEMAQIQQNAVQNHTATMLEIGTSLLSQTAEQTRKLTDVETQVLNQTSRLEIQLLENSLSTYKLEKQLLQQTNEILKIHEKNSLLEHKILEMEGKHKEELDTLKEEKENLQGLVTRQTYIIQELEKQLNRATTNNSVLQKQQLELMDTVHNLVNLCTKEGVLLKGGKREEEKPFRDCADVYQAGFNKSGIYTIYINNMPEPKKVFCNMDVNGGGWTVIQHREDGSLDFQRGWKEYKMGFGNPSGEYWLGNEFIFAITSQRQYMLRIELMDWEGNRAYSQYDRFHIGNEKQNYRLYLKGHTGTAGKQSSLILHGADFSTKDADNDNCMCKCALMLTGGWWFDACGPSNLNGMFYTAGQNHGKLNGIKWHYFKGPSYSLRSTTMMIRPLDF
modifications: full-length
notes: full length parent protein of QHREDGS
- cardiomyocyte viability after exposure to H2O2 [7]: maintain cardiomyocyte viability
- cardiac myocyte ATP levels ([1]; 400 nM protein): substantially increased

B2: ang2: ang2 protein comparator in the ATP assay (protein, UniProt O15123 19-496, looked up)
Angiopoietin-2: YNNFRKSMDSIGKKQYQVQHGSCSYTFLLPEMDNCRSSSSPYVSNAVQRDAPLEYDDSVQRLQVLENIMENNTQWLMKLENYIQDNMKKEMVEIQQNAVQNQTAVMIEIGTNLLNQTAEQTRKLTDVEAQVLNQTTRLELQLLEHSLSTNKLEKQILDQTSEINKLQDKNSFLEKKVLAMEDKHIIQLQSIKEEKDQLQVLVSKQNSIIEELEKKIVTATVNNSVLQKQQHDLMETVNNLLTMMSTSNSAKDPTVAKEEQISFRDCAEVFKSGHTTNGIYTLTFPNSTEEIKAYCDMEAGGGGWTIIQRREDGSVDFQRTWKEYKVGFGNPSGEYWLGNEFVSQLTNQQRYVLKIHLKDWEGNEAYSLYEHFYLSSEELNYRIHLKGLTGTAGKISSISQPGNDFSTKDGDNDKCICKCSQMLTGGWWFDACGPSNLNGMYYPQRQNTNKFNGIKWYYWKGSGYSLKATTMMIRPADF
- cardiac myocyte ATP levels ([1]; 400 nM protein): no such effect
